Test results from patent EP2649091B1, “IMMUNE RESTRICTED PEPTIDES WITH INCREASED EFFICACY” (Stichting Het Nederlands Kanker Instituut, priority 2010, dated 2012).

Legend:
[1] = target: HLA-A0201 (Homo sapiens, UniProt P04439, D140Y/D185E/D98H/E176V/E277Q/G131W/G231S/I119V/I121R/I166T/I218V/L300P/L318F/N151K/N90K/P208A/P217A/Q86G/Q94H/R138H/R169H/T345S); format: binding
[2] = test system: SVYDFFVWL (TRP-2 180-188) reactive T cells; test: T cell activation time course assay, IFNγ production (FACS), TRP-2 epitope; conditions: for % CD8+ T cells producing IFN-γ peptide concentrations in picomolar 24H 0.5 / Geometric mean IFN-γ in arbitrary fluorescence units peptide concentrations in picomolar 24H 0.5 / % CD8+ T cells producing IFN-γ peptide concentrations in picomolar 48H 0.5 / Geometric mean IFN-γ in arbitrary fluorescence units peptide concentrations in picomolar 48H 0.5: peptide 0.5 pM; for % CD8+ T cells producing IFN-γ peptide concentrations in picomolar 24H 50 / Geometric mean IFN-γ in arbitrary fluorescence units peptide concentrations in picomolar 24H 50 / % CD8+ T cells producing IFN-γ peptide concentrations in picomolar 48H 50 / Geometric mean IFN-γ in arbitrary fluorescence units peptide concentrations in picomolar 48H 50: peptide 50 pM; for % CD8+ T cells producing IFN-γ peptide concentrations in picomolar 24H 5·10^3 / Geometric mean IFN-γ in arbitrary fluorescence units peptide concentrations in picomolar 24H 5·10^3 / % CD8+ T cells producing IFN-γ peptide concentrations in picomolar 48H 5·10^3 / Geometric mean IFN-γ in arbitrary fluorescence units peptide concentrations in picomolar 48H 5·10^3: peptide 5·10^3 pM

| Substance | % inhibition at T=4H and T=24H FP 4h [1] | % inhibition at T=4H and T=24H FP 24h [1] | % CD8+ T cells producing IFN-γ peptide concentrations in picomolar 24H 0.5 [2] | Geometric mean IFN-γ in arbitrary fluorescence units peptide concentrations in picomolar 24H 0.5 [2] | % CD8+ T cells producing IFN-γ peptide concentrations in picomolar 24H 50 [2] | Geometric mean IFN-γ in arbitrary fluorescence units peptide concentrations in picomolar 24H 50 [2] | % CD8+ T cells producing IFN-γ peptide concentrations in picomolar 24H 5·10^3 [2] | Geometric mean IFN-γ in arbitrary fluorescence units peptide concentrations in picomolar 24H 5·10^3 [2] | % CD8+ T cells producing IFN-γ peptide concentrations in picomolar 48H 0.5 [2] | Geometric mean IFN-γ in arbitrary fluorescence units peptide concentrations in picomolar 48H 0.5 [2] | % CD8+ T cells producing IFN-γ peptide concentrations in picomolar 48H 50 [2] | % CD8+ T cells producing IFN-γ peptide concentrations in picomolar 48H 5·10^3 [2] | Geometric mean IFN-γ in arbitrary fluorescence units peptide concentrations in picomolar 48H 5·10^3 [2] | Geometric mean IFN-γ in arbitrary fluorescence units peptide concentrations in picomolar 48H 50 [2] |
| --- | --- | --- | --- | --- | --- | --- | --- | --- | --- | --- | --- | --- | --- | --- |
| [PHG][CpALA]YDFFVWL | 77% | 75% | 1% | 71 arbitrary fluorescence units | 12% | 87 arbitrary fluorescence units | 30% | 221 arbitrary fluorescence units | 0% | 70 arbitrary fluorescence units | 6% | 34% | 183 arbitrary fluorescence units | – |
| [PHG][NVA]YDFFVWL | 79% | 76% | 0% | 76 arbitrary fluorescence units | 15% | 94 arbitrary fluorescence units | 29% | 263 arbitrary fluorescence units | 0% | 85 arbitrary fluorescence units | 2% | 30% | 188 arbitrary fluorescence units | – |
| [PHG][NVA]YDFFVW[ALG] | 76% | 73% | 0% | 84 arbitrary fluorescence units | 6% | 71 arbitrary fluorescence units | 35% | 185 arbitrary fluorescence units | 1% | 64 arbitrary fluorescence units | 1% | 22% | 142 arbitrary fluorescence units | 64 arbitrary fluorescence units |
| [PHG][NVA]YDFFVW[PRG] | 83% | 78% | 1% | 89 arbitrary fluorescence units | 6% | 73 arbitrary fluorescence units | 33% | 183 arbitrary fluorescence units | 0% | 66 arbitrary fluorescence units | 1% | 21% | 139 arbitrary fluorescence units | 61 arbitrary fluorescence units |
| [am-phg][2-AOC]YDFFVWL | 94% | 87% | 0% | 78 arbitrary fluorescence units | 12% | 82 arbitrary fluorescence units | 31% | 215 arbitrary fluorescence units | 0% | 88 arbitrary fluorescence units | 1% | 30% | 143 arbitrary fluorescence units | 70 arbitrary fluorescence units |
| [am-phg][2-AOC]YDFFVW[ALG] | 73% | 73% | 0% | 98 arbitrary fluorescence units | 1% | 69 arbitrary fluorescence units | 7% | 79 arbitrary fluorescence units | 0% | 76 arbitrary fluorescence units | 0% | 4% | 71 arbitrary fluorescence units | 80 arbitrary fluorescence units |
| [am-phg][CpALA]YDFFVW[PRG] | 80% | 80% | 1% | 94 arbitrary fluorescence units | 1% | 69 arbitrary fluorescence units | 14% | 95 arbitrary fluorescence units | 0% | 76 arbitrary fluorescence units | 0% | 4% | 76 arbitrary fluorescence units | 66 arbitrary fluorescence units |
| [am-phg][NVA]YDFFVWL | 79% | 77% | 1% | 59 arbitrary fluorescence units | 26% | – | 34% | 326 arbitrary fluorescence units | 1% | 78 arbitrary fluorescence units | 18% | 40% | 255 arbitrary fluorescence units | – |
| [am-phg][NVA]YDFFVW[PRG] | 88% | 80% | 0% | 64 arbitrary fluorescence units | 7% | 77 arbitrary fluorescence units | 26% | 181 arbitrary fluorescence units | 0% | 71 arbitrary fluorescence units | 1% | 23% | 132 arbitrary fluorescence units | 57 arbitrary fluorescence units |
